According to patent US20240343729A1 (priority 2021, published 2024):

What was measured:
Human PDE10A2 [1] = molecular target: T1, Human PDE10A2 (Homo sapiens (Human), UniProt Q9Y233); test: cell-based; conditions: Forskolin 10 μM; read-out: cAMP HTRF Assay in HEK 293 rhPDE10A2 cell line (pIC50) (converted)
Method: Semi log compound dilutions starting at a final concentration of 10 μM were dispensed into a white 384 well plate, alongside DMSO and an Inhibited control using the Tecan D300e digital dispenser. HEK 293 cells overexpressing recombinant human PDE10A2 were seeded on top of the compounds at 2500 cells/well in a volume 5 μL/well. The plate was incubated at room temperature for 60 minutes. To induce endogenous cAMP, 5 μL/well of Forskolin at a final assay concentration of 10 μM was added to the plate. The plate was incubated at room temperature for a further 45 minutes. cAMP HTRF detection reagents were added, and the plate was incubated for 60 minutes at room temperature. […] Data was analysed using a 4-parameter fit.

Human PDE10A2 [2] = molecular target: T1, Human PDE10A2; test: biochemical; assay type: biochemical; conditions: human PDE10A2 0.25 nM, cGMP 3 μM
Method: Semi Log compound dilutions starting at a final concentration of 50 μM were dispensed into a black 384 well plate alongside, DMSO and an Inhibited control using the Echo Acoustic dispenser. […] Data was analysed using a 4-parameter fit.

T1 sequence (Q9Y233 267-1055): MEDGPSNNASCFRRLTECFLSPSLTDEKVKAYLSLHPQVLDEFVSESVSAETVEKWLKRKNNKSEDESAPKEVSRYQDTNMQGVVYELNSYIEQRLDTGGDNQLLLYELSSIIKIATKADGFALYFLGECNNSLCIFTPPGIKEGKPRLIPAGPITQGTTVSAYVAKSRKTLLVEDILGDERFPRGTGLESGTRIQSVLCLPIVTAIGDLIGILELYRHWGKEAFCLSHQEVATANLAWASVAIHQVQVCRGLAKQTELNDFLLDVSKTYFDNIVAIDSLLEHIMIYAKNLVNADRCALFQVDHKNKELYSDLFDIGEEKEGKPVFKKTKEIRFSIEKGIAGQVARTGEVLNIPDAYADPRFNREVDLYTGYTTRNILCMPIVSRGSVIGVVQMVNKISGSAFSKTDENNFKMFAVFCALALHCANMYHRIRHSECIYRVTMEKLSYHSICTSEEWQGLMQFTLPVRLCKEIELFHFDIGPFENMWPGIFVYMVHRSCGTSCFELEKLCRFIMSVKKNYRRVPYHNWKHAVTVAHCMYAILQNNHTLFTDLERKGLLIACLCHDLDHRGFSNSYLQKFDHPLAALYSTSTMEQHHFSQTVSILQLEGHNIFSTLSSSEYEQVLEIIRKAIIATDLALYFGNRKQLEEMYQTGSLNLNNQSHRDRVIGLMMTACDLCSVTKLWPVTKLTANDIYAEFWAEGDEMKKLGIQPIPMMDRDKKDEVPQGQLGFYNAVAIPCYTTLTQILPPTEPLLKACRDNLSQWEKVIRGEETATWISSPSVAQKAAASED

| Compound | IC50 (Human PDE10A2 [1]) [nM] | PDE10A2 Phosphate Sensor Enzyme Assay (pIC50) (Human PDE10A2 [2]) | IC50 (Human PDE10A2 [2]; read-out: PDE10A2 Phosphate Sensor Enzyme Assay (pIC50) (converted)) [nM] |
| --- | --- | --- | --- |
| Cn1cc(-c2ccccc2)nc1C#Cc1nc(N2CC3(COC3)C2)c2cnn(C3CCOCC3)c2n1 [Example 6, 6-[6-[2-(1-Methyl-4-phenyl-imidazol-2-yl)ethynyl]-1-tetrahydropyran-4-yl-pyrazolo[3,4-d]pyrimidin-4-yl]-2-oxa-6-azaspiro[3.3]heptane] | 14.8 | 9.20 |  |
| Cn1cnc2c(N3CC4(COC4)C3)nc(C#Cc3nc(-c4ccccc4)c[nH]3)nc21 [Example 7, 6-[9-Methyl-2-[2-(4-phenyl-1H-imidazol-2-yl)ethynyl]purin-6-yl]-2-oxa-6-azaspiro[3.3]heptane] | 2.95 | 9.22 |  |
| Cn1cnc2c(N3CC4(COC4)C3)nc(C#Cc3nc(-c4ccccc4)cn3CCN3CCOCC3)nc21 [Example 5, 6-[9-Methyl-2-[2-[1-(2-morpholinoethyl)-4-phenyl-imidazol-2-yl]ethynyl]purin-6-yl]-2-oxa-6-azaspiro[3.3]heptane] | 0.427 | 9.37 |  |
| CC(C)n1ncc2c(N3C[C@H]4COC[C@H]4C3)nc(C#Cc3nc(-c4ccccc4)c[nH]3)nc21 [Example 25, (3aR,6aS)-5-(1-isoPropyl-6-((4-phenyl-1H-imidazol-2-yl)ethynyl)-1H-pyrazolo[3,4-d]pyrimidin-4-yl)hexahydro-1H-furo[3,4-c]pyrrole] |  | 9.95 |  |
| Cn1cc(-c2ccccc2)nc1C#Cc1nc(N2CC3(COC3)C2)c2cnn(CC3CNC3)c2n1 [Example 8, 6-[1-(Azetidin-3-ylmethyl)-6-[2-(1-methyl-4-phenyl-imidazol-2-yl)ethynyl]pyrazolo[3,4-d]pyrimidin-4-yl]-2-oxa-6-azaspiro[3.3]heptane] | 5.75 | 8.45 |  |
| CC(C)n1ncc2c(N3C[C@H]4COC[C@H]4C3)nc(C#Cc3nc(-c4ccccc4)cn3C)nc21 [Example 18, (3aR,6aS)-5-(1-isoPropyl-6-((1-methyl-4-phenyl-1H-imidazol-2-yl)ethynyl)-1H-pyrazolo[3,4-d]pyrimidin-4-yl)hexahydro-1H-furo[3,4-c]pyrrole] | 0.617 | 9.99 |  |
| Cn1cc(-c2ccccc2)nc1C#Cc1nc(N2CC3(COC3)C2)c2cnn(C)c2n1 [Example 3, 6-[1-Methyl-6-[2-(1-methyl-4-phenyl-imidazol-2-yl)ethynyl]pyrazolo[3,4-d]pyrimidin-4-yl]-2-oxa-6-azaspiro[3.3]heptane] | 0.275 | 9.99 |  |
| C[C@@H]1COCCN1c1nc(C#Cc2nc(-c3cccnc3)c[nH]2)nc2c1ncn2C [Example 32, (R)-3-Methyl-4-(9-methyl-2-((4-(pyridin-3-yl)-1H-imidazol-2-yl)ethynyl)-9H-purin-6-yl)morpholine] | 2.34 | 9.90 |  |
| Cn1ncc2c(N3C[C@H]4COC[C@H]4C3)nc(C#Cc3nc(-c4ccccc4)c[nH]3)nc21 [Example 9, (3aS,6aR)-5-[1-methyl-6-[2-(4-phenyl-1H-imidazol-2-yl)ethynyl]pyrazolo[3,4-d]pyrimidin-4-yl]-1,3,3a,4,6,6a-hexahydrofuro[3,4-c]pyrrole] | 0.603 |  | 0.0251 |
| Cn1cnc2c(N3C[C@H]4COC[C@H]4C3)nc(C#Cc3nc(-c4cccnc4)c[nH]3)nc21 [Example 31, (3aR,6aS)-5-(9-Methyl-2-((4-(pyridin-3-yl)-1H-imidazol-2-yl)ethynyl)-9H-purin-6-yl)hexahydro-1H-furo[3,4-c]pyrrole] | 3.98 | 8.95 |  |
| C[C@H]1COCCN1c1nc(C#Cc2nc(-c3ccccc3)c[nH]2)nc2c1ncn2C [Example 30, (S)-3-Methyl-4-(9-methyl-2-((4-phenyl-1H-imidazol-2-yl)ethynyl)-9H-purin-6-yl)morpholine] | > 1000 | 8.97 |  |
| Cn1cc(-c2ccccc2)nc1C#Cc1nc(N2CCS(=N)(=O)CC2)c2cnn(C)c2n1 [Example 24, 1-Imino-4-(1-methyl-6-((1-methyl-4-phenyl-1H-imidazol-2-yl)ethynyl)-1H-pyrazolo[3,4-d]pyrimidin-4-yl)-1l6-thiomorpholine 1-oxide] | 1.2 | 10.10 |  |
| Cn1cnc2c(N3C[C@H]4COC[C@H]4C3)nc(C#Cc3nc(-c4ccccc4)c[nH]3)nc21 [Example 28, (3aR,6aS)-5-(9-Methyl-2-((4-phenyl-1H-imidazol-2-yl)ethynyl)-9H-purin-6-yl)hexahydro-1H-furo[3,4-c]pyrrole] | 33.9 | 9.34 |  |
| C[C@@H]1COCCN1c1nc(C#Cc2nc(-c3ccccc3)c[nH]2)nc2c1ncn2C [Example 29, (R)-3-Methyl-4-(9-methyl-2-((4-phenyl-1H-imidazol-2-yl)ethynyl)-9H-purin-6-yl)morpholine] | 3.47 | 9.92 |  |
| C[C@H]1COCCN1c1nc(C#Cc2nc(-c3ccccc3)cn2C)nc2c1CCNC2 [Example 13, (3S)-3-Methyl-4-[2-[2-(1-methyl-4-phenyl-imidazol-2-yl)ethynyl]-5,6,7,8-tetrahydropyrido[3,4-d]pyrimidin-4-yl]morpholine] | > 1000 | 8.92 |  |
| C(#Cc1nc(-c2ccccc2)c[nH]1)c1nc(N2C[C@H]3COC[C@H]3C2)c2cnn(C3COC3)c2n1 [Example 27, (3aR,6aS)-5-(1-(Oxetan-3-yl)-6-((4-phenyl-1H-imidazol-2-yl)ethynyl)-1H-pyrazolo[3,4-d]pyrimidin-4-yl)hexahydro-1H-furo[3,4-c]pyrrole] | 32.4 | 9.49 |  |
| Cn1cc(-c2ccccc2)nc1C#Cc1nc2c(c(N3CCOCC3)n1)CCNC2 [Example 11, 4-[2-[2-(1-Methyl-4-phenyl-imidazol-2-yl)ethynyl]-5,6,7,8-tetrahydropyrido[3,4-d]pyrimidin-4-yl]morpholine] | 1.86 | 9.80 |  |
| C[C@H]1COCCN1c1nc(C#Cc2nc(-c3ccccc3)cn2C)nc2c1ncn2C [Example 22, (S)-3-Methyl-4-(9-methyl-2-((1-methyl-4-phenyl-1H-imidazol-2-yl)ethynyl)-9H-purin-6-yl)morpholine] |  | 9.22 |  |
| CCn1ncc2c(N3C[C@H]4COC[C@H]4C3)nc(C#Cc3nc(-c4ccccc4)cn3C)nc21 [Example 17, (3aR,6aS)-5-(1-Ethyl-6-((1-methyl-4-phenyl-1H-imidazol-2-yl)ethynyl)-1H-pyrazolo[3,4-d]pyrimidin-4-yl)hexahydro-1H-furo[3,4-c]pyrrole] | 0.331 | 10.50 |  |
| C[C@@H]1COCCN1c1nc(C#Cc2nc(-c3ccccc3)cn2C)nc2c1ncn2C [Example 21, (R)-3-Methyl-4-(9-methyl-2-((1-methyl-4-phenyl-1H-imidazol-2-yl)ethynyl)-9H-purin-6-yl)morpholine] | 0.417 | 10.30 |  |
| C[C@H]1COCCN1c1nc(C#Cc2nc(-c3cccnc3)c[nH]2)nc2c1ncn2C [Example 33, (S)-3-Methyl-4-(9-methyl-2-((4-(pyridin-3-yl)-1H-imidazol-2-yl)ethynyl)-9H-purin-6-yl)morpholine] | 17.4 | 8.68 |  |
| Cn1cc(-c2ccccc2)nc1C#Cc1nc2c(c(N3CCOCC3)n1)CCN(C1COC1)C2 [Example 14, 4-[2-[2-(1-Methyl-4-phenyl-imidazol-2-yl)ethynyl]-7-(oxetan-3-yl)-6,8-dihydro-5H-pyrido[3,4-d]pyrimidin-4-yl]morpholine] | 1.78 | 9.35 |  |
| Cn1cc(-c2ccccc2)nc1C#Cc1nc(N2C[C@H]3COC[C@H]3C2)c2cnn(CC3CC3)c2n1 [Example 16, (3aR,6aS)-5-(1-(Cyclopropylmethyl)-6-((1-methyl-4-phenyl-1H-imidazol-2-yl)ethynyl)-1H-pyrazolo[3,4-d]pyrimidin-4-yl)hexahydro-1H-furo[3,4-c]pyrrole] | 4.17 | 10.10 |  |
| Cn1cc(-c2cccnc2)nc1C#Cc1nc(N2CC3(COC3)C2)c2ncn(C)c2n1 [Example 2, 6-[9-Methyl-2-[2-[1-methyl-4-(3-pyridyl)imidazol-2-yl]ethynyl]purin-6-yl]-2-oxa-6-azaspiro[3.3]heptane] | 1.55 | 8.62 |  |
| Cn1cc(-c2ccccc2)nc1C#Cc1nc(N2C[C@H]3COC[C@H]3C2)c2cnn(C)c2n1 [Example 23, (3aR,6aS)-5-(1-Methyl-6-((1-methyl-4-phenyl-1H-imidazol-2-yl)ethynyl)-1H-pyrazolo[3,4-d]pyrimidin-4-yl)hexahydro-1H-furo[3,4-c]pyrrole] | 0.245 | 10.40 |  |
| C(#Cc1nc(-c2ccccc2)c[nH]1)c1nc(N2C[C@H]3COC[C@H]3C2)c2cnn(CC3CC3)c2n1 [Example 26, (3aR,6aS)-5-(1-(Cyclopropylmethyl)-6-((4-phenyl-1H-imidazol-2-yl)ethynyl)-1H-pyrazolo[3,4-d]pyrimidin-4-yl)hexahydro-1H-furo[3,4-c]pyrrole] |  | 9.99 |  |
